Results reported in patent publication US7071177B2, “P-(sulfonyl) aryl and heteroarylamines as anti-inflammatory agents” (Syntex (U.S.A.) LLC, priority 2000, dated 2006).

**Q.** For `CS(=O)(=O)CCN(Cc1ccccn1)c1ccc(S(C)(=O)=O)cc1` [1-45, 4-{N,N-[2-(methylsulfonyl)ethyl](pyridin-2-ylmethyl)amino}phenyl methyl sulfone], which melting point is on record?
**A.** 139.5 to 140.5 °C

**Q.** For `CCOc1ccc(CN(CCS(C)(=O)=O)c2ccc(S(C)(=O)=O)c(F)c2)cc1` [1-72, (4-ethoxy-benzyl)-(3-fluoro-4-methanesulfonyl-phenyl)-(2-methanesulfonyl-ethyl)-amine], which melting point is on record?
**A.** 56 to 59 °C

**Q.** With `COc1ccc(CNS(=O)(=O)c2ccc(N(CCS(C)(=O)=O)Cc3ccc(C)cc3)cc2)cc1` [2-1, 4-[(2-methylsulfonyl-ethyl)-(4-methyl-benzyl)amino]-N-(4-methoxy-benzyl)-benzenesulfonamide] as the molecule, how does the melting point read?
**A.** 85.7 to 86.6 °C

**Q.** For `Cc1ccc(CN(CCS(C)(=O)=O)c2ccc(S(N)(=O)=O)cc2)cc1` [2-2, 4-[(2-methylsulfonyl-ethyl)-(4-methyl-benzyl)-amino]-benzenesulfonamide], which melting point is on record?
**A.** 169.1 to 170 °C

**Q.** Which melting point does the source give for `CS(=O)(=O)CCN(Cc1ccc(F)cc1F)c1ccc(S(N)(=O)=O)cc1` [2-4, 4-[(2-methylsulfonyl-ethyl)-(2,4-difluorobenzyl)-amino]-benzenesulfonamide] here?
**A.** 152.9 to 153.2 °C
